Test results reported in the NIST ThermoML archive (doi:10.1016/j.fluid.2018.01.026).
± gives the expanded uncertainty stated by the source.

Details: 101.33 kPa, Liquid, Vibrating tube method

| mass density (293.15 K) | mass density (298.15 K) | mass density (303.15 K) | mass density (308.15 K) | mass density (313.15 K) | mass density (318.15 K) | mass density (323.15 K) | mass density (328.15 K) | mass density (333.15 K) | SMILES |
| --- | --- | --- | --- | --- | --- | --- | --- | --- | --- |
| 1080.13 ± 6.3 kg/m3 | 1074.92 ± 6.3 kg/m3 | 1069.67 ± 6.2 kg/m3 | 1064.31 ± 6.1 kg/m3 | 1058.71 ± 6.1 kg/m3 | 1053.13 ± 6 kg/m3 | 1047.55 ± 5.9 kg/m3 | 1042.01 ± 5.9 kg/m3 | 1036.62 ± 5.8 kg/m3 | CC(=O)CO [acetol] |
| 900.48 ± 1 kg/m3 | 894.36 ± 1 kg/m3 | 888.19 ± 1 kg/m3 | 881.98 ± 1 kg/m3 | 875.73 ± 1 kg/m3 |  |  |  |  | CCOC(C)=O [ethyl acetate] |
| 887.8 ± 1 kg/m3 | 882.19 ± 1 kg/m3 | 876.56 ± 1 kg/m3 | 870.9 ± 1 kg/m3 | 865.21 ± 1 kg/m3 |  |  |  |  | CCCOC(C)=O [propyl ethanoate] |

| SMILES | mass density (293.15 K) | mass density (298.15 K) | mass density (303.15 K) | mass density (308.15 K) | mass density (313.15 K) | mass density (318.15 K) | mass density (323.15 K) | mass density (328.15 K) | mass density (333.15 K) |
| --- | --- | --- | --- | --- | --- | --- | --- | --- | --- |
| CCCCOC(C)=O [butyl ethanoate] | 880.61 ± 1 kg/m3 | 875.45 ± 1 kg/m3 | 870.27 ± 1 kg/m3 | 865.08 ± 1 kg/m3 | 859.86 ± 1 kg/m3 |  |  |  |  |
